Where two headings read alike, the source gives them in different places. Values belong to the compound of their own block, whether it stands above or below them.
Legend:
[1] = target: T1, alpha-synuclein (sonicated fibrils) (Homo sapiens, UniProt P37840); assay: Modified competition binding assay, protocol 3b, reference ligand [3H]-compound 2; conditions: Table 5, reference ligand [3H]-compound 2 (1 nM)
T1 construct: made in house; host or cells: E. coli
Method: (§1) Alpha-synuclein and tau46 were purified from E. coli according to established protocols (Nuscher B, et al., J. Biol. Chem., 2004; 279(21):21966-75), Aβ1-42 was obtained from rPeptide, Watkinsville, Ga., USA. Fibrils were prepared by aggregation of recombinant protein via constant agitation. In detail, 70 μM of alpha-synuclein mixed with 100 mM NaCl in 50 mM Tris, pH 7.0+0.02% NaN3 were incubated at 1,400 rpm, 37° C. for 96 h. 10 μM of tau46 were incubated with 0.03 mg/ml heparin in 50 mM Tris, pH=7.0 at 1,000 rpm, 37° C. for 72 h. Aβ1-42 was solved in 20 mM NaPi, pH=8.0+0.2 mM EDTA+0.02% NaN3 (Deeg A A, et al., Biochim. Biophys. Acta, 2015; 1850(9): 1884-90; Goedert M, et al. Nature, 1996; 383(6600): 550-3).
For competition binding experiments, a fixed concentration of recombinant αSYN fibrils (sonicated, 15 nM/well) was incubated with 1 nM [^3H]-compound 1 or [3H]-compound 2 and decreasing concentrations of a serial dilution of non-labeled competitor (serial dilution 1:4 or 1:3.5 or 1:3 providing the concentration ranges of non-labeled competitor 1 μM-[…] 1 μM-4 nM or 1 μM-[…], respectively) in 30 mM Tris-HCl, 10% ethanol, 0.05% Tween20, pH 7.4 in a total volume of 200 μL/well. Plates were incubated for 4.5 hours at RT covered by removable sealing tape (PerkinElmer, Waltham, Mass., USA).
Filtration and readout were performed as described for saturation binding assays. [^3H]-labeled ligand binding [in CMP] was plotted against increasing competitor concentrations and data points were fitted using non-linear regression analysis to calculate the IC50 and Ki values (GraphPad Software, Inc., Version 7.03, La Jolla (Calif.), USA). In the competition binding assay with sonicated recombinant αSYN fibrils, the calculation of Ki values was done based on KD values of 0.6 nM and 0.2 nM for compound 1 and compound 2, respectively.
(§2) The fibril competition assay provides Ki values. Ki is a quantitative measure that represents the concentration of the non-radioactive tested compound (competitor ligand) required to replace 50% of a reference compound, in this case [H]-compound 1 (1 nM) or [H]-compound 2 (1 nM), which is bound to the target structures (1 nM), in our case recombinant alpha-synuclein and tau46 fibrils. This assay is suitable for a screening of non-radioactive ligands.

[2] = test system: H4 cells overexpressing full-length alpha-synuclein; assay: Cellular model of aggregated alpha-synuclein-dependent toxicity, full-length alpha-synuclein H4 cells; assay type: cell-based; conditions: 10 μM compound, 100 μM FeCl3, 0.75% DMSO, 48 h; for inhibition at 10 µM: read-out: Change in fraction of condensed nuclei (rel. to DMSO control) [%]
Method: (§3) To identify potential therapeutically useful effects, compounds were tested in two cellular models of aggregated alpha-synuclein-dependent toxicity in H4 cells. These cellular models allow for the inducible overexpression of alpha-synuclein hemi-Venus fusion constructs (V1S+SV2) or full-length alpha-synuclein (the model is described in detail in: Bartels M, Weckbecker D, Kuhn P H, Ryazanov S, Leonov A, Griesinger C, Lichtenthaler S F, Bötzel K, Giese A: Iron-mediated aggregation and toxicity in a novel neuronal cell culture model with inducible alpha-synuclein expression, Sci. Rep. 2019 Jun. 24; 9(1):9100). Moreover, addition of DMSO and FeCl3 promotes the aggregation of alpha-synuclein which is associated with an increase in cytotoxicity. The cell culture assay uses these effects by determining the change in the number of cells and the change in the percentage of condensed nuclei, which is indicative of apoptosis, in order to obtain information on which compounds show the most promising effects and thus might be therapeutically useful.
(§4) In these experiments, cells were incubated with 100 μM FeCl3 and 0.75% DMSO in the presence of 10 μM anle138c as a positive control, compounds 1 to 19 (10 μM), or DMSO as a negative control. After 48 h, the cells were imaged with an OPERA high-throughput imaging system and analyzed using Acapella software (Perkin Elmer). […] A reduction in the fraction of condensed nuclei (in the absence of a strong reduction in cell number) is indicative of a beneficial therapeutic effect.

[3] = target: T2, alpha-synuclein (fibrils) (Homo sapiens, UniProt P37840); assay: Competition binding assay, protocol 3a, reference ligand [3H]-compound 1, alpha-synuclein fibrils; conditions: reference ligand [3H]-compound 1 (1 nM)
T2 construct: made in house; host or cells: E. coli
Method: as §1
(§5) A fixed concentration of sonicated human recombinant αSYN (200 nM/well) or tau46 (208 nM/well) fibrils diluted in phosphate buffered saline (PBS) were incubated in low binding plates (96 well micro test plate, Ratiolab GmbH, Dreieich, Germany) together with 1 nM [^3H]-compound 1 and 1:4 serial dilutions of the cold compound of interest starting from 1 μM diluted in 50 mM Tris-base, 10% EtOH, 0.05% Tween20, pH 7.4. For the calculation of Ki values the KD value of compound 1 toward sonicated human recombinant αSYN fibrils was set to 3 nM.
(§6) Assay plates were incubated under agitation at 37° C. for 2 h covered by plastic foil (Resealable tape, PerkinElmer, Waltham, Mass., USA). Prior to harvesting, a filter (Printed filtermat B, PerkinElmer, Waltham, Mass., USA) was incubated with 5 mg/mL polyethylenimine (PEI, Poly(ethyleneimine) solution, Sigma Aldrich Chemie GmbH, Taufkirchen, Germany) at 4° C. for 30 min. After incubation, bound and free ligands were separated by vacuum filtration using a harvester (Filtermate harvester, PerkinElmer, Waltham, Mass., USA). The filter was washed three times with buffer cooled to 4° C. and subsequently dried in the microwave for 2 min at medium power. The filter was sealed in a plastic bag (Sample bag for MicroBeta®, PerkinElmer, Waltham, Mass., USA) together with added scintillator (BETAPLATE SCINT, PerkinElmer, Waltham, Mass., USA). Accumulation of tritium was counted in a liquid scintillation counter (Wallac MicroBeta® TriLux, 1450 LSC & Luminescence Counter, PerkinElmer, Waltham, Mass., USA) immediately. Radioactivity was plotted against the increasing tritium-labeled compound or cold compound concentrations. Data points were fitted using nonlinear regression analysis in GraphPad Prism (GraphPad Software, Inc., Version 7.03, La Jolla, Calif., USA).
as §2

tau46 (fibrils) = target: T3, tau46 (fibrils) (Homo sapiens, UniProt P10636); assay: Competition binding assay, protocol 3a, reference ligand [3H]-compound 1, tau46 fibrils; conditions: Experiment B, reference ligand [3H]-compound 1 (1 nM)
T3 construct: made in house; host or cells: E. coli
T3 sequence (P10636 1-412 isoform P10636-7): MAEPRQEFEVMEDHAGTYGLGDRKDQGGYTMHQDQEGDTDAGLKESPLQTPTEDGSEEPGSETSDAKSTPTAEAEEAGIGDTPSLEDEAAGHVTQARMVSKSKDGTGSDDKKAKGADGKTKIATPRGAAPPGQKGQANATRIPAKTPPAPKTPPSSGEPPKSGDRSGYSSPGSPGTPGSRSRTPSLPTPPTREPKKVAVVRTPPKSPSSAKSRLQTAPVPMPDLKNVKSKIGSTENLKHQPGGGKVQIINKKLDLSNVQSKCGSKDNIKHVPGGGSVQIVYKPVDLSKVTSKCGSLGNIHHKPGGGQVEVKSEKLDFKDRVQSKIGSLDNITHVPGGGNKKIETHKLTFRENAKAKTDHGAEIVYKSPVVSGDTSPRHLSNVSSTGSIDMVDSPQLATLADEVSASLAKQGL
Method: as §1, §5, §6, §2

[4] = test system: H4 cells overexpressing alpha-synuclein hemi-Venus fusion constructs (V1S+SV2); assay: Cellular model of aggregated alpha-synuclein-dependent toxicity, V1S+SV2 H4 cells; assay type: cell-based; conditions: 10 μM compound, 100 μM FeCl3, 0.75% DMSO, 48 h; for inhibition at 10 µM: read-out: Change in fraction of condensed nuclei (rel. to DMSO control) [%]
Method: as §3, §4

[5] = target: T4, aggregated alpha-synuclein (Homo sapiens, UniProt P37840); assay: Saturation binding assay, protocol 2a, alpha-synuclein fibrils; conditions: saturation assay protocol 2a, [3H]-labeled compound; read-out: KD [nM] for aggregated alpha-synuclein
T4 construct: made in house; host or cells: E. coli
Method: as §1
Sonicated αSYN (0.04 μM) or tau46 (0.4 μM) or Aβ1-42 (6 μM) fibrils diluted in PBS were incubated with decreasing concentrations of [^3H]-labeled compound (48 nM or 24 nM-[…]) in 50 mM Tris-base, 10% ethanol, 0.05% Tween20, pH 7.4. To determine non-specific binding, the respective unlabeled compound (400 nM) was added to a duplicate set of binding reactions.
as §6, with “2 h,” for “2 h”, “microwave oven” for “microwave”, “power. Melt-on scintillator sheets (MeltiLex™ B/HS, PerkinElmer, Waltham, Mass., USA) were molten into the filter using a heating plate set to 120° C. After solidifying at room temperature, the” for “power. The”, “MicroBeta®,” for “MicroBeta®, PerkinElmer, Waltham, Mass., USA) together with added scintillator (BETAPLATE SCINT,”
The fibril-binding saturation assay provides KD values. This assay is performed with directly radioactively labeled compounds (e.g. ^3H labeling). The saturation binding assays were performed using as target structures fibrillar aggregates produced from recombinant human alpha-synuclein, Aβ1-42, and tau46, respectively.

[6] = target: T1, alpha-synuclein (sonicated fibrils); assay: Modified competition binding assay, protocol 3b, reference ligand [3H]-compound 1; conditions: Table 4b, reference ligand [3H]-compound 1 (1 nM), read-out: Ki (nM) alpha-synuclein (sonicated fibrils)
Method: Fibrils were prepared by aggregation of recombinant protein via constant agitation. In detail, 70 μM of alpha-synuclein mixed with 100 mM NaCl in 50 mM Tris, pH 7.0+0.02% NaN3 were incubated at 1,400 rpm, 37° C. for 96 h. 10 μM of tau46 were incubated with 0.03 mg/ml heparin in 50 mM Tris, pH=7.0 at 1,000 rpm, 37° C. for 72 h.
Plates were incubated for 4.5 hours at RT covered by removable sealing tape (PerkinElmer, Waltham, Mass., USA).
Filtration and readout were performed as described for saturation binding assays.
The fibril competition assay provides Ki values. […] This assay is suitable for a screening of non-radioactive ligands.

[7] = Experiment A, read-out: Ki (nM) alpha-synuclein (fibrils)
[8] = Experiment B, read-out: Ki (nM) alpha-synuclein (sonicated fibrils)

SMILES: CN(C)c1ccc(-c2cc(-c3ccnc(Br)c3)[nH]n2)cn1 [Compound 4, 5-[5-(2-bromopyridin-4-yl)-1H-pyrazol-3-yl]-N,N-dimethylpyridin-2-amine]
Ki [1]: 0.7 nM
Change in cell number (rel. to DMSO control) [%] [2]: −48.6%
inhibition at 10 µM [2]: 30.1%
Ki [3, 7]: 8 nM
Ki [3, 8]: 13 nM
Ki (tau46 (fibrils)): 31 nM
Change in cell number (rel. to DMSO control) [%] [4]: −36.9%
inhibition at 10 µM [4]: -33.7%

SMILES: CN(C)c1ccc(-c2cc(-c3ccnc(F)c3)[nH]n2)cc1 [Compound 3, 4-[5-(2-fluoropyridin-4-yl)-1H-pyrazol-3-yl]-N,N-dimethylaniline]
Ki [1]: 0.95 nM
Change in cell number (rel. to DMSO control) [%] [2]: −34.8%
inhibition at 10 µM [2]: 79.1%
Ki [3, 7]: < 0.1 nM
Ki [3, 8]: 3 nM
Ki (tau46 (fibrils)): 4 nM
Change in cell number (rel. to DMSO control) [%] [4]: −11.3%
inhibition at 10 µM [4]: 31.9%

SMILES: Brc1cc(-c2cc(-c3ccc4c(c3)OCO4)n[nH]2)ccn1 [Compound 9, 4-[3-(1,3-benzodioxol-5-yl)-1H-pyrazol-5-yl]-2-bromopyridine]
Ki [1]: 3.3 nM
Change in cell number (rel. to DMSO control) [%] [2]: −35.3%
inhibition at 10 µM [2]: 23.8%
Ki [3, 7]: 2 nM
Ki [3, 8]: < 4 nM
Ki (tau46 (fibrils)): 28 nM
Ki [6]: 2.1 nM
Change in cell number (rel. to DMSO control) [%] [4]: −22.5%
inhibition at 10 µM [4]: 31.8%

Now from value to compound, other results behind:

Ki [1]: 7.8 nM
Ki [3, 7]: 34 nM
Ki [3, 8]: 25 nM
Ki (tau46 (fibrils)): > 100 nM
SMILES: Brc1cncc(-c2cc(-c3ccc4c(c3)OCO4)n[nH]2)c1 [Compound 10]
Change in cell number (rel. to DMSO control) [%] [2]: −35.3%
inhibition at 10 µM [2]: 60.2%
Change in cell number (rel. to DMSO control) [%] [4]: −32.8%
inhibition at 10 µM [4]: 50.3%

Kd [5]: 126 nM
SMILES: Cn1nc(-c2ccc3c(c2)OCO3)cc1-c1ccnc(Br)c1 [Compound 18, 4-[3-(1,3-benzodioxol-5-yl)-1-methyl-1H-pyrazol-5-yl]-2-bromopyridine]
Change in cell number (rel. to DMSO control) [%] [2]: −21.3%
inhibition at 10 µM [2]: 18.2%
Change in cell number (rel. to DMSO control) [%] [4]: −11.8%
inhibition at 10 µM [4]: 19.9%

Ki [1]: 0.8 nM
Ki [3, 8]: 2 nM
Ki (tau46 (fibrils)): 1 nM
SMILES: Brc1cc(-c2cc(-c3ccc(N4CCC4)cc3)n[nH]2)ccn1 [Compound 17, 4-{3-[4-(azetidin-1-yl)phenyl]-1H-pyrazol-5-yl}-2-bromopyridine]
Change in cell number (rel. to DMSO control) [%] [2]: −28.9%
inhibition at 10 µM [2]: 55%
Change in cell number (rel. to DMSO control) [%] [4]: −8.2%
inhibition at 10 µM [4]: 38.3%

— US20230067910A1, “NOVEL COMPOUNDS FOR THE DIAGNOSIS, TREATMENT AND PREVENTION OF DISEASES ASSOCIATED WITH THE AGGREGATION OF ALPHA-SYNUCLEIN” (MODAG GMBH, priority 2019, published 2023)
